From patent publication US10479795B2 (Incyte Corporation, priority 2016, dated 2019)
Structures can show the parent of a compound that is named as a salt.

What was measured:
[1] = test system: Phosphorylated Ribosomal Protein S6 (RPS6); experiment: THP-1 RPS6 ELISA Assay; format: cell-based, Human; details: Homo sapiens; THP-1 cells; read-out: PI3Kγ_THP1_RPS6_ELISA IC50
Procedure, shortened: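 Serum-starved THP-1 cells were preincubated with a concentration range of compound for 2 h at 37 °C, then stimulated with 10 nM MCP-1 for 15 min. Phospho-RPS6 in lysates was quantified by ELISA at 450 nm. IC50 came from percent inhibition versus log inhibitor concentration.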

[2] = biological target: PI3Kδ (p110δ/p85α) Recombinant Human Protein (Homo sapiens (Human), UniProt O00329); experiment: PI3Kδ Scintillation Proximity Assay; format: biochemical
Chain of PI3Kδ (p110δ/p85α) Recombinant Human Protein (O00329 whole entry): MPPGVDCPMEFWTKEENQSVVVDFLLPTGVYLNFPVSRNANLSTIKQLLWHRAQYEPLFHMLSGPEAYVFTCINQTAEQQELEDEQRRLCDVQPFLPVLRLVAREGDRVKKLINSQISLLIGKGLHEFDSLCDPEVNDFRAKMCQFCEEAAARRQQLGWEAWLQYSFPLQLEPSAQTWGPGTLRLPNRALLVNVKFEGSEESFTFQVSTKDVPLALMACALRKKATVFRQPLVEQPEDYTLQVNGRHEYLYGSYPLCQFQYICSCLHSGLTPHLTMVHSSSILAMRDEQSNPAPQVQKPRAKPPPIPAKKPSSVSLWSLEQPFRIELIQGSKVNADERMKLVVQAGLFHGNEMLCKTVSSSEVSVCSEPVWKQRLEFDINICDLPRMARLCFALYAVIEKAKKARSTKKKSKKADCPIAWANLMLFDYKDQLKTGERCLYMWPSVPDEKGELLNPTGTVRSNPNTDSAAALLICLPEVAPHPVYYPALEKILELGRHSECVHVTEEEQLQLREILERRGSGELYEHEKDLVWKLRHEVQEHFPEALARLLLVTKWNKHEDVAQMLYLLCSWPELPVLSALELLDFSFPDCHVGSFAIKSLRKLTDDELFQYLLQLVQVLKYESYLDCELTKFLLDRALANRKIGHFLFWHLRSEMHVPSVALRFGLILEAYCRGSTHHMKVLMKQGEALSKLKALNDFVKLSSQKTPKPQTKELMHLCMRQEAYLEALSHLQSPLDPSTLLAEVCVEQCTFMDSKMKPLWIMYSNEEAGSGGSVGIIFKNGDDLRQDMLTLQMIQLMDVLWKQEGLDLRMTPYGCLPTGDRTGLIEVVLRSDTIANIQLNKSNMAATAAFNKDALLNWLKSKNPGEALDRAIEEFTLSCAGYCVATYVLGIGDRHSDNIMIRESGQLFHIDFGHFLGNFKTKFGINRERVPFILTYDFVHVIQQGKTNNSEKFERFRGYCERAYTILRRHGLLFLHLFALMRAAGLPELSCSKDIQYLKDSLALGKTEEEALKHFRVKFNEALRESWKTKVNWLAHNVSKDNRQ
Chain of PI3Kδ (p110δ/p85α) Recombinant Human Protein (P27986 whole entry partner): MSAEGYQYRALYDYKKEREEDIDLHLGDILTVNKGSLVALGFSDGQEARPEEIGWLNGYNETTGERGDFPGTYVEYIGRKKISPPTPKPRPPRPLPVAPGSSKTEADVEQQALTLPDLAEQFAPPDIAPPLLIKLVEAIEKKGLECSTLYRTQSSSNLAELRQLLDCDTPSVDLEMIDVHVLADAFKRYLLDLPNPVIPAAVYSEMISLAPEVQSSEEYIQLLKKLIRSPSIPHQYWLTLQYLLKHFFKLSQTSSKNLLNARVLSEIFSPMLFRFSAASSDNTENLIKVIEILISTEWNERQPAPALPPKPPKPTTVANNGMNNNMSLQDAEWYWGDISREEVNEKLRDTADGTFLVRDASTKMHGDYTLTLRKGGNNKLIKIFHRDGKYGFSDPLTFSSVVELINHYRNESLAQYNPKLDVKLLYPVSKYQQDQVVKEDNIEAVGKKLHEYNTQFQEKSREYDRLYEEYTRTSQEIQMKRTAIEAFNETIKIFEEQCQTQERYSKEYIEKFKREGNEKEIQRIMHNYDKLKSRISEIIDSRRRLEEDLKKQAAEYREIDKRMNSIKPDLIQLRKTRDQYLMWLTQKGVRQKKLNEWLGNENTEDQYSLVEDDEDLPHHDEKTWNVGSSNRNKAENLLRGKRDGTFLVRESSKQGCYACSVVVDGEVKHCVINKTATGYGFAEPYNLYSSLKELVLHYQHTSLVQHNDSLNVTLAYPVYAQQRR
Procedure, shortened: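 Recombinant human p110δ/p85α (3.4 nM) with 20 μM PIP2 and 2 μM ATP plus [γ-33P]ATP, in 20 mM MOPS pH 6.7, 10 mM MgCl2, 5 mM DTT, 0.03% CHAPS, 2% DMSO; 120 min at room temperature. Product captured on WGA SPA beads, scintillation counted; IC50 from percent-of-control curves.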

[3] = biological target: PI3Kγ (p110γ) Recombinant Human Protein (Homo sapiens (Human), UniProt P48736); experiment: PI3K-γ Scintillation Proximity Assay; format: biochemical; details: read-out: PI3Kγ IC50
Chain of PI3Kγ (p110γ) Recombinant Human Protein (P48736 whole entry): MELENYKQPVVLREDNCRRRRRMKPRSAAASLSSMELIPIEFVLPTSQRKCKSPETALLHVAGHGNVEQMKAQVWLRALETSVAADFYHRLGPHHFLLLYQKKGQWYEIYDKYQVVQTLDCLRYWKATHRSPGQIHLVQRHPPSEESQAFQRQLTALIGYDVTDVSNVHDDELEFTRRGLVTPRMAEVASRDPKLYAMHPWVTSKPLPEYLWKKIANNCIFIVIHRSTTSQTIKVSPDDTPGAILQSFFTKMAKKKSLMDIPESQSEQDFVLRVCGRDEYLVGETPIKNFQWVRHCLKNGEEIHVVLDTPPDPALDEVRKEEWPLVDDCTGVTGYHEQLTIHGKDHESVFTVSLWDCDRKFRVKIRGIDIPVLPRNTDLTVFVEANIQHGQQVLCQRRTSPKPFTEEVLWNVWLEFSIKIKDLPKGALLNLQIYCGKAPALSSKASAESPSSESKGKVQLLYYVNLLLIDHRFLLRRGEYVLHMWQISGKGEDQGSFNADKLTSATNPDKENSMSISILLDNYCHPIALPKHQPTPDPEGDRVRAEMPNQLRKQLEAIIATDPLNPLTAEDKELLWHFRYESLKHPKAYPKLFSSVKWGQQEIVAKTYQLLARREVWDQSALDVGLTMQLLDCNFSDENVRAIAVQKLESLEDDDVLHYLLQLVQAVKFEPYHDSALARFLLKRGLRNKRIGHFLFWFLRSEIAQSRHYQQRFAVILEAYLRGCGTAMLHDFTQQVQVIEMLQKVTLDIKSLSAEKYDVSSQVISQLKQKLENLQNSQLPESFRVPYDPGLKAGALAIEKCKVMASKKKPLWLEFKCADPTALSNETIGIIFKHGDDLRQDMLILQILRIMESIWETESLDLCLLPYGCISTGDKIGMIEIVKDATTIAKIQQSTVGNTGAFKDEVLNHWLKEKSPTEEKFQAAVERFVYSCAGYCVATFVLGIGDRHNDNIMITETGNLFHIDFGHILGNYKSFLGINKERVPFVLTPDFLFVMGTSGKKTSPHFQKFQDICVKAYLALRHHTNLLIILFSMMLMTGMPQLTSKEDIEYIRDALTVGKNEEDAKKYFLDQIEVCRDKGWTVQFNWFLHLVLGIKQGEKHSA
Procedure, shortened: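 Recombinant human p110γ assayed at room temperature in 20 mM MOPS pH 6.7, 10 mM MgCl2, 5 mM DTT, 0.03% CHAPS, 2% DMSO, with 20 μM PIP2 and 2 μM ATP plus [γ-33P]ATP. Product captured on WGA SPA beads overnight and counted; IC50 fitted from % of solvent-control activity versus log inhibitor concentration.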

Row | IC50 [1] | IC50 [2] | IC50 [3] | SMILES
1 | > 1000 nM | 100 to 500 nM | < 100 nM | Cc1ccc(S(=O)(=O)N2CCCC(C(=O)O)C2)cc1-c1cnc2c(N)nc(C(F)(F)F)cn12 (stereo not drawn) [Example 510, 1-((3-(8-Amino-6-(trifluoromethyl)imidazo[1,2-a]pyrazin-3-yl)-4-methylphenyl)sulfonyl)piperidine-3-carboxylic acid trifluoroacetate]
2 | 100 to 500 nM | 100 to 500 nM | < 100 nM | Cc1ccc(S(=O)(=O)N2CCCC(CN)C2)cc1-c1cnc2c(N)nc(C(F)(F)F)cn12 (stereo not drawn) [Example 513, 3-(5-((3-(Aminomethyl)piperidin-1-yl)sulfonyl)-2-methylphenyl)-6-(trifluoromethyl)imidazo[1,2-a]pyrazin-8-amine trifluoroacetate]
3 | < 100 nM | < 100 nM | < 100 nM | Cc1ccc(S(=O)(=O)N2CCCC(N)C2)cc1-c1cnc2c(N)nc(C(F)(F)F)cn12 (stereo not drawn) [Example 516, 3-(5-((3-Aminopiperidin-1-yl)sulfonyl)-2-methylphenyl)-6-(trifluoromethyl)imidazo[1,2-a]pyrazin-8-amine trifluoroacetate]
4 | 100 to 500 nM | 500 to 2000 nM | 100 to 500 nM | Cc1ccc(S(=O)(=O)N[C@H]2CC[C@](C)(O)CC2)cc1-c1cnc2c(N)ccnn12 [Example 518, 3-(8-Aminoimidazo[1,2-b]pyridazin-3-yl)-N-((1r,4r)-4-hydroxy-4-methylcyclohexyl)-4-methylbenzenesulfonamide]
5 | > 1000 nM | < 100 nM | 100 to 500 nM | Cc1ccc(S(=O)(=O)NCC(C)(C)O)cc1-c1cnc2c(NCc3ccccc3)nc(C(F)(F)F)cn12 [Example 519, 3-(8-(Benzylamino)-6-(trifluoromethyl)imidazo[1,2-a]pyrazin-3-yl)-N-(2-hydroxy-2-methylpropyl)-4-methylbenzenesulfonamide]
